Reference: ChEMBL document CHEMBL1201862, “PubChem BioAssay data set” (2004)
Calls of active or inactive are those of the source.

Legend:
[1] = biological target: Glucose-6-phosphate 1-dehydrogenase (Homo sapiens, UniProt P11413); assay: inhibition of Homo sapiens G6PD, dose series – biochemical, fluorescence, selectivity assay for P. falciparum G6PD inhibitor project, dose response (AID 504792); assay type: functional
Steroidogenic factor 1 = Steroidogenic factor 1 (Homo sapiens, UniProt Q13285); assay: Counterscreen for inverse agonists of the liver receptor homolog-1 (LRH-1; NR5A2): Luminescence-based cell-based high throughput dose response assay to identify inverse agonists of the Steroidogenic Factor 1 Nuclear Receptor (SF1; NR5A1).; assay type: functional
[2] = nonselective StAR promoter luciferase inhibitors – cell-based, luminescence, luciferase reporter, counter-screen for LRH-1 inverse agonist project, dose response (AID 651969); assay type: functional
[3] = biological target: Nuclear receptor subfamily 5 group A member 2 (Homo sapiens, UniProt O00482); assay type: functional, cell-based;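 also: HEK293T cells transfected with LRH-1 and a StAR promoter luciferase reporter; potency for inhibitors that lower LRH-1 driven reporter light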
[4] = biological target: T1, Low molecular weight phosphotyrosine protein phosphatase (Homo sapiens, UniProt P24666); assay type: functional; conditions: read-out: IC50_Mean;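 also: Dose-response confirmation assay measuring inhibition of LMPTP enzyme activity by fluorescence intensity read-out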
T1 sequence (P24666 whole entry): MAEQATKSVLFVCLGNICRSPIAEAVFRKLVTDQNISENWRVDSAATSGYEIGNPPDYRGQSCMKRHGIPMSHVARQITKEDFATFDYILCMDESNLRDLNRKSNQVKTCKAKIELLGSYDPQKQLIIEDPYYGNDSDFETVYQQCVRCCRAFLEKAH

[5] = biological target: Dual specificity tyrosine-phosphorylation-regulated kinase 1A (Rattus norvegicus, UniProt Q63470); assay type: biochemical, Homo sapiens
Fatty acid synthase [6] = biological target: T2, Fatty acid synthase (Homo sapiens, UniProt P49327); assay: inhibition of human FAS-TE enzyme activity – biochemical, endpoint fluorescence intensity, uHTS hits, dose response (AID 624327); assay type: functional;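 also: fluorescence from hydrolysis of an O-methyl fluorescein acyl ester substrate by the enzyme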
Fatty acid synthase [7] = biological target: T2, Fatty acid synthase; assay: inhibition of human FAS-TE enzyme activity – biochemical, kinetic fluorescence intensity, dose response (AID 624326); assay type: functional;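 also: rate of fluorescence rise from hydrolysis of a fluorogenic O-methyl fluorescein ester substrate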
[8] = fluconazole-exposed Candida albicans growth modulators – fluorescence, retest, confirmation (AID 2467); assay type: functional, cell-based
[9] = NIH-3T3 fibroblast cytotoxicity, dose response, cytotoxicity control, cell-based, fluorescence, Alamar Blue, secondary assay (AID 2327); assay type: functional;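 also: NIH-3T3 mouse fibroblasts cultured with fluconazole at 8 µg/mL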
[10] = biological target: T3, RNA-binding protein pos-1 (Caenorhabditis elegans, UniProt G5EF15); assay: disruptors of C. elegans POS-1 RNA interaction – biochemical, fluorescence polarization, dose response (AID 1964);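 also: purified POS-1 fused to maltose binding protein made in E. coli; potency of compounds blocking POS-1 binding to fluorescent RNA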
T3 sequence (G5EF15 whole entry): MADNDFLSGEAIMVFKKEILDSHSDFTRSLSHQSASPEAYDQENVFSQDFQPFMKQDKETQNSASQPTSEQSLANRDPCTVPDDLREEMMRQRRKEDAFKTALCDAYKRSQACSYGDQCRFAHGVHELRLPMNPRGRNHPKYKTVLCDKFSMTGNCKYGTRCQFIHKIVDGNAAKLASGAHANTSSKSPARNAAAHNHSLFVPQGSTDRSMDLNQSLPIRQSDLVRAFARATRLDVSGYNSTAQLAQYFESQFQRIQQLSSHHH

[11] = biological target: T4, Zinc finger protein mex-5 (Caenorhabditis elegans, UniProt Q9XUB2); assay: potency of MEX-5 RNA-binding blockers – biochemical, C. elegans, fluorescence polarization, dose response (AID 1960)
T4 sequence (Q9XUB2 whole entry): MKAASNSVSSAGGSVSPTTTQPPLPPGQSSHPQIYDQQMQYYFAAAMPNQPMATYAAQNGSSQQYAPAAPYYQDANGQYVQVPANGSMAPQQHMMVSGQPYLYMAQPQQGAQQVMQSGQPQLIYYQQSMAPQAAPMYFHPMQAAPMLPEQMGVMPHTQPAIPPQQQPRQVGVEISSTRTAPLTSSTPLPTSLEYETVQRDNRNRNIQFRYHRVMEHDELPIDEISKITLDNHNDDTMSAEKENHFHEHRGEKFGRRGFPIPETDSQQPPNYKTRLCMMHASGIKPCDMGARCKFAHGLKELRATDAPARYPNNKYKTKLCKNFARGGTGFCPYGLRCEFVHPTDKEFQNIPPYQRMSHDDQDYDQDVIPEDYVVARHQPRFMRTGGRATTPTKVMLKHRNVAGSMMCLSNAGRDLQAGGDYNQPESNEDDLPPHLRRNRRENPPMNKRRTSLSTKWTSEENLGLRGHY

Large T antigen = Large T antigen (Simian virus 40, UniProt P03070); assay type: functional, Betapolyomavirus macacae;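 also: Confirmatory-stage PubChem screen for compounds that inhibit SV40 T antigen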
[12] = biological target: T5, Short transient receptor potential channel 4 (Mus musculus, UniProt Q9QUQ5); assay: block of DAMGO-driven TRPC4 calcium entry – cell-based, HEK293 TRPC4/mu-opioid, Fluo-4 calcium, dose response (AID 434942); assay type: functional;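 also: potency of inhibitors blocking the TRPC4 calcium response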
T5 sequence (Q9QUQ5 whole entry): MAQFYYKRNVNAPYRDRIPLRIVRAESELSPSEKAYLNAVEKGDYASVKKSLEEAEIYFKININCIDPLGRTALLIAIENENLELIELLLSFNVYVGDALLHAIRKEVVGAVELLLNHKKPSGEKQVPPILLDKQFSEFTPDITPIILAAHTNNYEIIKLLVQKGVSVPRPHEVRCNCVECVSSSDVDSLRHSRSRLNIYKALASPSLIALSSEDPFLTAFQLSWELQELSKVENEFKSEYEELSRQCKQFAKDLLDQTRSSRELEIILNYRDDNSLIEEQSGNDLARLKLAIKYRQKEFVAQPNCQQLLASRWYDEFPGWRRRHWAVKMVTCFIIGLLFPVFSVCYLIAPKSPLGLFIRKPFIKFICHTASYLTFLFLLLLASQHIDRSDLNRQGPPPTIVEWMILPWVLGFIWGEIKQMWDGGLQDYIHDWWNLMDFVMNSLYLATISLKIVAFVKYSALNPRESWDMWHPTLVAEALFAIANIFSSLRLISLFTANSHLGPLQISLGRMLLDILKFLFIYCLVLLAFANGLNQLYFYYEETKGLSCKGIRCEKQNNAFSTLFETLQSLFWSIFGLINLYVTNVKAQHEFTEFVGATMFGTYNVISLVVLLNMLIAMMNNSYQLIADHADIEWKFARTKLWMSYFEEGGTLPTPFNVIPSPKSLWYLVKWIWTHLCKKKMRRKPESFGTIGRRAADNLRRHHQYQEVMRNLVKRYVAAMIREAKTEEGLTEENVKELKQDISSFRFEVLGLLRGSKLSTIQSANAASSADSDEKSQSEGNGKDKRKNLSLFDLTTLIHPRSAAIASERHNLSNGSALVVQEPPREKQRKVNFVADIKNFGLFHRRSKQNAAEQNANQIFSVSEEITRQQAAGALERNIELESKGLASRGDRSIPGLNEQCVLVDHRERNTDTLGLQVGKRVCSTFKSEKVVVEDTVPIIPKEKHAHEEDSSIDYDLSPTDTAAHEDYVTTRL

[13] = blockers of HIV-1 ZM109 envelope-driven cell-cell fusion – HeLa effector, CEM target cells, luciferase, cherry-pick, dose response (AID 652058); assay type: functional, cell-based;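 also: luciferase signal from HIV-1 Env mediated cell-cell fusion of effector and target cells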
[14] = biological target: Eukaryotic translation initiation factor 4E (Mus musculus, UniProt P63073); assay: blockers of eIF4G binding by eIF4E – biochemical, TR-FRET, dose response (AID 855); assay type: functional;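 also: potency for disrupting eIF4E binding to eIF4GI seen as loss of FRET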
[15] = viability of uninfected HEp-2 cells – cell-based, HTS, cytotoxicity control for RSV inhibitor project, dose response (AID 2410); assay type: functional; conditions: human respiratory syncytial virus
[16] = intracellular Trypanosoma cruzi inhibitors in host cells – cell-based, plate reader, cherry-pick samples, set 3, dose response (AID 651818); assay type: functional;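 also: compounds incubated with infected cells for about four days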
[17] = blockers of HIV-1 envelope-mediated cell-cell fusion – cherry-pick, dose response (AID 652057); assay type: functional, cell-based

T2 sequence (P49327 whole entry): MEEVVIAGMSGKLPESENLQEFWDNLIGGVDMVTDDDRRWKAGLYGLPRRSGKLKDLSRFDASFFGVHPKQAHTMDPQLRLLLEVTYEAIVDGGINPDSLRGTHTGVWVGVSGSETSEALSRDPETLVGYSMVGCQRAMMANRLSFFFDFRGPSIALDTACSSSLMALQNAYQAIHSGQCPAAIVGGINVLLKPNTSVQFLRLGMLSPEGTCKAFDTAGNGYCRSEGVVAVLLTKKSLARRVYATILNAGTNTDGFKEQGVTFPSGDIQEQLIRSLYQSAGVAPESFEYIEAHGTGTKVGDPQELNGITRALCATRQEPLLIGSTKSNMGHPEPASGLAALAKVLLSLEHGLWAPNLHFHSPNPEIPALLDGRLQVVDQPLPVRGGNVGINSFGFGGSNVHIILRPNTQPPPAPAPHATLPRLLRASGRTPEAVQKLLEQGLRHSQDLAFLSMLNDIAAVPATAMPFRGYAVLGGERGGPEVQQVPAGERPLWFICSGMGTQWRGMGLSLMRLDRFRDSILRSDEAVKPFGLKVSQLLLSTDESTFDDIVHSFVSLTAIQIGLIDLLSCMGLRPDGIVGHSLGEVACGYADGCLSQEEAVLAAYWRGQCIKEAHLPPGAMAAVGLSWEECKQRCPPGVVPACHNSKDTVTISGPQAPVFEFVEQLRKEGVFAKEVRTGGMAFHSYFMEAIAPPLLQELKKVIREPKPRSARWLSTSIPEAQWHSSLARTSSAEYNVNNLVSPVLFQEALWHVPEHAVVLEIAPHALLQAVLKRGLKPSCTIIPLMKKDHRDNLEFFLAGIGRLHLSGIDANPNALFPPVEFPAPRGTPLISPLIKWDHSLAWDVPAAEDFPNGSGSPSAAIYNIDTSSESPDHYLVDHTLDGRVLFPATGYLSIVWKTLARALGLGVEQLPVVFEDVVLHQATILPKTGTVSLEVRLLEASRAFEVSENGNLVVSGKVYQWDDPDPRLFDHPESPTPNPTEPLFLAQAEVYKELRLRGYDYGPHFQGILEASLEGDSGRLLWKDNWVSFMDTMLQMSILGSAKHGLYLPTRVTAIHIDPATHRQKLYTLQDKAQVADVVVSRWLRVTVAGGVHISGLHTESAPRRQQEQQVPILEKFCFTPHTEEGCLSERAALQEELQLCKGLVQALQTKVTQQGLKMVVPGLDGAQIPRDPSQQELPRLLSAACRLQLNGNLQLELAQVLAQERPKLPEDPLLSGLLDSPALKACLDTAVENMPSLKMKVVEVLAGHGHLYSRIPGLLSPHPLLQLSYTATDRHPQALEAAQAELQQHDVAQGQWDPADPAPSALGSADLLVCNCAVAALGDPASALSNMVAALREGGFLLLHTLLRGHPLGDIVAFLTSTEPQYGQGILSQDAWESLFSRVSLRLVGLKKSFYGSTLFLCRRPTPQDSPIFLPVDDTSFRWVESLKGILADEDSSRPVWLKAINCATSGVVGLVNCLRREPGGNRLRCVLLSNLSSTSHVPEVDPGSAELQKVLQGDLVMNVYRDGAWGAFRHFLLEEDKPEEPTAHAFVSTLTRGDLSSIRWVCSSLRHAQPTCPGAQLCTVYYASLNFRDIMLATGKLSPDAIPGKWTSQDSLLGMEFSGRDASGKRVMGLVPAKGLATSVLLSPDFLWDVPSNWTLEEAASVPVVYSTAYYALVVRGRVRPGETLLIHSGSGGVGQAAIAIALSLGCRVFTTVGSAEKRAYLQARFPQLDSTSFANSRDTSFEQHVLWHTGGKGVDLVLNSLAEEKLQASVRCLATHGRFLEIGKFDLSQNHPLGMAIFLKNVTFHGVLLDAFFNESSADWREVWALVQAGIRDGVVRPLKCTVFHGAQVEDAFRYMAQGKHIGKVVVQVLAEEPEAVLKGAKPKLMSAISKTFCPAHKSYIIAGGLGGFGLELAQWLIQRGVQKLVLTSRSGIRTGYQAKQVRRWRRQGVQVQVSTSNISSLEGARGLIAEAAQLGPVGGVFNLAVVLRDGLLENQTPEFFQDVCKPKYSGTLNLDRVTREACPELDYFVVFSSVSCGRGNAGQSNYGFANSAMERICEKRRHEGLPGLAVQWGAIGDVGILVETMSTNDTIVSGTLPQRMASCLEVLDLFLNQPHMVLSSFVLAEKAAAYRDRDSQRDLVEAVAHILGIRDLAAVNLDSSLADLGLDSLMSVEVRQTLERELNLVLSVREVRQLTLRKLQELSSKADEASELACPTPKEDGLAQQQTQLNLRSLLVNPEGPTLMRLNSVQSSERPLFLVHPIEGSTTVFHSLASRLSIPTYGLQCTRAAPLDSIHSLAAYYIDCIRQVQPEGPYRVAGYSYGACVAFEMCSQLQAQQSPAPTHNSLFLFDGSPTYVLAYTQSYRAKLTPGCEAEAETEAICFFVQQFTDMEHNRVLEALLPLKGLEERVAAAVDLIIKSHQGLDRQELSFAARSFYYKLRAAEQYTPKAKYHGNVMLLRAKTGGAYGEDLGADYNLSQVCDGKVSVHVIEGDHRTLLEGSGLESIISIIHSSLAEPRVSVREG
Sequence of Nuclear receptor subfamily 5 group A member 2 (O00482 whole entry): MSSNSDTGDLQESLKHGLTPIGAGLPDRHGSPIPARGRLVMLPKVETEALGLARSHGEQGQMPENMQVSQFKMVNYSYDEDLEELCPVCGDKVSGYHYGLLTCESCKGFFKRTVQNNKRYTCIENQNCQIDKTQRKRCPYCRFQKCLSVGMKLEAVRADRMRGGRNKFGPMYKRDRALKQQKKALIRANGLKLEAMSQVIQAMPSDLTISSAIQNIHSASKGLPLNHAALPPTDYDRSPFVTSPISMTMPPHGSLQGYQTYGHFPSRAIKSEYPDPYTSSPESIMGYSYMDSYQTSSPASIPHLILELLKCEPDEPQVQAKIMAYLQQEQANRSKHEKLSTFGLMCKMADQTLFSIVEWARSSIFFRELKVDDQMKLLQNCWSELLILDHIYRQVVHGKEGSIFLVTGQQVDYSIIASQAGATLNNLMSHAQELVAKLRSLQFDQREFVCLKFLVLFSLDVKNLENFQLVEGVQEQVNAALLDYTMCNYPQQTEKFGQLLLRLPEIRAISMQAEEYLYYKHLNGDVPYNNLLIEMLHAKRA
Sequence of Steroidogenic factor 1 (Q13285 whole entry): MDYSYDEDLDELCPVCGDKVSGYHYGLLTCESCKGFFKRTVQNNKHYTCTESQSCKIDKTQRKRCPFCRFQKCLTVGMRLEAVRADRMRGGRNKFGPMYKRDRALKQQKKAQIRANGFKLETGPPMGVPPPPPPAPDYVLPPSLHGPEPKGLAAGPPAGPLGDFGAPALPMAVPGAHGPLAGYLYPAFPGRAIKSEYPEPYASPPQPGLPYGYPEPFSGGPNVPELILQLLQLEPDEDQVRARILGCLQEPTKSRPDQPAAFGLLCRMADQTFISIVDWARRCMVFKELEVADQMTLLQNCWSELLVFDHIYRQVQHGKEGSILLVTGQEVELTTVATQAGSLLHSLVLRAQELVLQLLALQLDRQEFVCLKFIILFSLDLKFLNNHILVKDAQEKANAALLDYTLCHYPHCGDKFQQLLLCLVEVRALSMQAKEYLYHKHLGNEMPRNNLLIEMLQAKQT
Sequence of Glucose-6-phosphate 1-dehydrogenase (P11413 whole entry): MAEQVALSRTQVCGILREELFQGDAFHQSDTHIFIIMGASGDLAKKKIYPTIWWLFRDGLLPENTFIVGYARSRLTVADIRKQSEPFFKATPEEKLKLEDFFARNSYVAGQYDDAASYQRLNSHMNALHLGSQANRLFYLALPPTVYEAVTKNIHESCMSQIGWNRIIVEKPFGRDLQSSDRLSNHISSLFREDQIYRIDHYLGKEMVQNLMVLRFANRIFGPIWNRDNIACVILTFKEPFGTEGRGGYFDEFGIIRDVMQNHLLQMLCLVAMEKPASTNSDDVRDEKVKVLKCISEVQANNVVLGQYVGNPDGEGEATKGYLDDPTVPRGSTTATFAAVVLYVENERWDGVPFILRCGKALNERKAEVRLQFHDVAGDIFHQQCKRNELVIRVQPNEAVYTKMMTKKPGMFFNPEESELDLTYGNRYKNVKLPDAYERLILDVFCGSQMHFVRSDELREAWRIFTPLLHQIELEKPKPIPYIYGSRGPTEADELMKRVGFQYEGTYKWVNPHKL
Sequence of Large T antigen (P03070 whole entry): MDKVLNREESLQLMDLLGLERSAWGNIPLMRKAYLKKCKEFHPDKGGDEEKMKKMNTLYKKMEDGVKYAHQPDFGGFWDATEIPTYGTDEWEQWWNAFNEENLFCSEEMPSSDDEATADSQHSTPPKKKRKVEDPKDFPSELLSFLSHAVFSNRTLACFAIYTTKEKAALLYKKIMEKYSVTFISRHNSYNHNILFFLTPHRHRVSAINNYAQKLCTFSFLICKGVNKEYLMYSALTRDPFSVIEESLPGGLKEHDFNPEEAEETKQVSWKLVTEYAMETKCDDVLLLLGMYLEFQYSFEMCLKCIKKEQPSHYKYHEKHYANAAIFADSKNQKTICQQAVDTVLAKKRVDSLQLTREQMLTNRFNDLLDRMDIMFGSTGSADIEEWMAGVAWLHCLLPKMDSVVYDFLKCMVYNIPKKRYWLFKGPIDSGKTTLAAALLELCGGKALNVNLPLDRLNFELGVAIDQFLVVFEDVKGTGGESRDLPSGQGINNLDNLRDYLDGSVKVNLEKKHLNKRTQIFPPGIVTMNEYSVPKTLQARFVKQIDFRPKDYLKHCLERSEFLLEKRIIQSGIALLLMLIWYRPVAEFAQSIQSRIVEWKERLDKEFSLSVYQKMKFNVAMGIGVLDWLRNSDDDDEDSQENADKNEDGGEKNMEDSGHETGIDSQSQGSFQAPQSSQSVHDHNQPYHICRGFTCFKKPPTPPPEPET
Sequence of Eukaryotic translation initiation factor 4E (P63073 whole entry): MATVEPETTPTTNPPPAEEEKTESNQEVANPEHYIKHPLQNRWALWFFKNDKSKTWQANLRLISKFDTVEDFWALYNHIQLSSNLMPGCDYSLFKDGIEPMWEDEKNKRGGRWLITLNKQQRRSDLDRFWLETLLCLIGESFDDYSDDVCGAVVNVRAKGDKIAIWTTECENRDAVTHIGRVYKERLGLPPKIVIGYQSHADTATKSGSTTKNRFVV

SMILES: O=C(Cc1ccccc1)NCC(=O)OCC(=O)c1ccc([N+](=O)[O-])cc1
- IC50 [1]: > 80 µM (inactive)

SMILES: CC(=O)Nc1ccc(NC(=O)CSc2nnnn2C2CCCCC2)cc1
- IC50 (Steroidogenic factor 1): 7.58 µM (active)
- IC50 [2]: 35.9 µM (inactive)
- IC50 [3]: 11.8 µM (inactive)

SMILES: O=C(Nc1cccc(-c2cn3ccccc3n2)c1)c1cc2ccccc2oc1=O
- IC50 [4]: 7.49 µM (active)

SMILES: O=C(Nc1cccc(-c2nn[nH]n2)c1)c1ccc(Br)s1
- AC50 [5]: 0.875 µM (active)

SMILES: CCn1c(=S)sc2c(=O)n(CC(=O)NC(C)CCc3ccccc3)c(C)nc21 (stereo not drawn)
- IC50 (Fatty acid synthase [6]): 9.52 µM (active)
- IC50 (Fatty acid synthase [7]): 16.8 µM (active)

SMILES: CC(C)(C)CC(=O)Nc1nnc(C(F)(F)F)s1
- EC50 [8]: 0.13 µM (active)
- EC50 [9]: > 160 µM (inactive)

SMILES: C=CCn1c(O)c(N=NC(=S)Nc2ccc(OC)cc2)c2ccccc21
- EC50 [9]: > 150 µM (inactive)

SMILES: CCCN1CCc2cc(O)cc3c2[C@H]1Cc1ccc(O)c(O)c1-3
- EC50 [10]: > 300 µM (inconclusive)
- EC50 [11]: > 300 µM (inconclusive)
- IC50 [1]: > 80 µM (inactive)
- IC50 (Large T antigen): 24 µM (active)

SMILES: CC(C)(C)NCc1ccccc1OCc1cccs1
- EC50 [12]: 3.76 µM (active)

SMILES: CCc1ccccc1N=C(S)N(CCCN(C)C)Cc1cc2cc3c(cc2nc1O)OCO3
- EC50 [12]: 1.06 µM (active)

SMILES: CCn1cc(C(=O)O)c(=O)c2cc(F)c(N3CCN(C(=S)NC(=O)c4ccc(F)cc4)CC3)cc21
- IC50 [4]: 11.7 µM (active)

SMILES: CCc1ccc(C(=O)CN2C(=O)NC(C)(c3ccc(C)cc3)C2=O)cc1 (stereo not drawn)
- AC50 [13]: 69 µM (active)

SMILES: CC1CCN(C(=O)c2ccc3c(Cl)c4c(nc3c2)CCCC4)CC1
- IC50 (Fatty acid synthase [6]): 5.24 µM (active)
- IC50 [14]: 50 µM (inactive)
- IC50 (Fatty acid synthase [7]): 6.9 µM (active)

SMILES: CN(C)c1ccc(NC(=O)C2C3C=CC(C3)C2C(=O)O)cc1 (stereo not drawn)
- EC50 [8]: > 38 µM (not active)
- EC50 [9]: > 160 µM (inactive)

SMILES: CC(C)(C)c1ccc(/C=C2\CCn3c2nc2cc(C(=O)O)ccc2c3=O)cc1
- IC50 (Fatty acid synthase [6]): 3.26 µM (active)
- IC50 (Fatty acid synthase [7]): 3 µM (active)

SMILES: CCOC(=O)CSc1nc2ccccc2c(=O)n1CC1CCCC1
- EC50 [12]: 6.68 µM (active)

SMILES: Cc1ccn2cc(CCNC(=O)c3ccc(Br)o3)nc2c1
- EC50 [12]: 7.5 µM (active)

SMILES: NNc1nc2c(Cl)ccc(Cl)c2s1
- AC50 [5]: 0.905 µM (active)

SMILES: O=C(CCn1c(=O)c2ccccc2n(Cc2cccc([N+](=O)[O-])c2)c1=O)N1CCc2ccccc2C1
- IC50 (Fatty acid synthase [6]): 1.26 µM (active)
- IC50 (Fatty acid synthase [7]): 1.17 µM (active)
- CC50 [15]: > 50 µM (active)

SMILES: CCOc1ccc(OCCN2C(=O)NC(Cc3c[nH]c4ccccc34)C2=O)cc1 (stereo not drawn)
- IC50 (Steroidogenic factor 1): 5.29 µM (active)
- IC50 [2]: 35.9 µM (inactive)
- IC50 [3]: 4.18 µM (active)

SMILES: COc1ccc(CCn2c(C)cc(C(=O)COC(=O)c3ccc(O)cc3O)c2C)cc1
- IC50 (Steroidogenic factor 1): 5.82 µM (active)
- IC50 [2]: 35.9 µM (inactive)
- IC50 [3]: 35.9 µM (inactive)

SMILES: COc1ccc(CCNC(=O)COC(=O)c2cc(Cl)nc(Cl)c2)cc1
- IC50 (Steroidogenic factor 1): 3.23 µM (active)
- IC50 [2]: 35.9 µM (inactive)
- IC50 [3]: 8.32 µM (active)

SMILES: Cc1ccc(NC(=O)CSc2nc3nc(O)cc(O)c3s2)c(Br)c1
- IC50 (Steroidogenic factor 1): 9.35 µM (active)
- IC50 [2]: 35.9 µM (inactive)
- IC50 [3]: 35.9 µM (inactive)

SMILES: CC(=O)Nc1cc(-c2ccc(S(C)(=O)=O)cc2)cn2c(-c3ccc(F)cc3)cnc12
- IC50 (Steroidogenic factor 1): 3.11 µM (active)
- IC50 [2]: 23.7 µM (inactive)
- IC50 [3]: 8.24 µM (active)

SMILES: C[C@H](CO)N1C[C@H](C)[C@@H](CN(C)Cc2ccc(C(F)(F)F)cc2)Oc2c(NC(=O)c3nc4ccccc4s3)cccc2C1=O
- AC50 [16]: 1.05 µM (active)

SMILES: Cc1ccc(S(=O)(=O)Nc2cccc3c2O[C@H](CN(C)Cc2ccc(C(=O)Nc4ccccc4N)cc2)[C@H](C)CN([C@H](C)CO)C3=O)cc1
- AC50 [16]: 2.26 µM (active)

SMILES: C[C@@H]1CCCCO[C@@H](CN(C)Cc2ccc(C(F)(F)F)cc2)[C@@H](C)CN([C@H](C)CO)C(=O)c2cc(NS(=O)(=O)c3ccc(Cl)cc3)ccc2O1
- AC50 [16]: 3.01 µM (active)

SMILES: C[C@H]1CN([C@@H](C)CO)C(=O)c2cccc(NS(=O)(=O)c3ccccc3)c2O[C@H]1CN(C)Cc1ccc(C(=O)Nc2ccccc2N)cc1
- AC50 [16]: 3.48 µM (active)

SMILES: C[C@@H]1CN([C@H](C)CO)C(=O)Cc2cc(NC(=O)Nc3ccc(C(F)(F)F)cc3)ccc2O[C@H]1CN(C)Cc1ccccc1
- AC50 [16]: 4.06 µM (active)

SMILES: C[C@@H]1CN([C@@H](C)CO)S(=O)(=O)c2ccc(C3=CCCC3)cc2O[C@@H]1CN(C)C(=O)C1CCOCC1
- AC50 [17]: 59 µM (active)
- AC50 [13]: 10.2 µM (active)

SMILES: O=C(CCc1ccc(O)c(O)c1)N/N=C/c1cc2c(cc1[N+](=O)[O-])OCO2
- EC50 [10]: 24 µM (active)
- EC50 [11]: 6.35 µM (active)
- IC50 [1]: > 80 µM (inactive)
- IC50 (Large T antigen): 13.8 µM (active)
